Assay results: patent US9433608B2 (priority 2013, dated 2016)

Columns and labels:
Details in all cases: in vivo
[1] = tested on: subacute temporal lobe infarct with encephalomalacia; parameters: species or system human
[2] = tested on: 12 mm right basal ganglia infarct (acute lacunar infarct); parameters: species or system human
[3] = tested on: TIA (transient ischemic attack) symptoms

SMILES	mental clarity noted by the patient [1]	vision in the right hemifield [1]	function after treatment [2]	leg weakness, expansion of the infarct, symptoms [2]	clinical state the next day [3]	effect on penumbra of injury [3]	sedation (side effect) on the second night [3]	swallowing on the second night [3]
CC12CC3CC(C)(C1)CC(N)(C3)C2 [memantine, 3,5-dimethyladamantan-1-amine]	clearing of fogginess	unable to regain vision in the right hemifield	returned to pre-stroke function	the weakness resolved and there was no further expansion of the infarct or worsening of symptoms				
Cc1ncc2n1-c1ccc(Cl)cc1C(c1ccccc1F)=NC2 [midazolam, 8-chloro-6-(2-fluorophenyl)-1-methyl-4H-imidazo[1,5a][1,4]benzodiazepine]					sitting talking to relatives, mentating better but could not swallow their own saliva	preventing expansion of the penumbra of injury	drowsy	could swallow their own saliva
CN1C(=O)CN=C(c2ccccc2)c2cc(Cl)ccc21 [diazepam, 7-chloro-1,3-dihydro-1-methyl-5-phenyl-1,4-benzodiazepin-2(3H)-one]	clearing of fogginess	unable to regain vision in the right hemifield	returned to pre-stroke function	the weakness resolved and there was no further expansion of the infarct or worsening of symptoms				
